Results from patent publication US5736629A, “Herbicide resistant rice” (priority 1997, dated 1998).

Key:
Type in all cases: in vivo
[1] = tested on: ATCC 75295 rice line; test: Field plot test with AHAS-inhibiting herbicides, ATCC 75295
Method: The resistance of these plants to several other AHAS-inhibiting herbicides was also tested. Nine-foot-long field plots were planted with seven rows of rice per plot. The test included nine check rice varieties, and the ATCC 75295 rice line. A shielded spray boom was used to apply herbicide, spraying six of the seven rows in each plot. The four herbicides used were Pursuit (imazethapyr: (±)-2-[4,5-dihydro-4-methyl-4-(1-methylethyl)-5-oxo-1H-imidazol-2-yl]-5-ethyl-3-pyridinecarboxylic acid); Scepter (imazaquin: 2-[4,5-dihydro-4-methyl-4-(1-methylethyl)-5-oxo-1H-imidazol-2-yl]-3-quinolinecarboxylic acid); Accent (nicosulfuron: 2-(((((4,6-dimethoxypyrimidin-2-yl)aminocarbonyl)) aminosulfonyl))-N,N-dimethyl-3-pyridinecarboxamide); and Beacon (primisulfuron: 3-[4,6-bis(difluoromethoxy)-pyrimidin-2-yl]-1-(2-methoxycarbonylphenylsulfonyl)urea). The herbicides were applied to two replicate plots for each herbicide when the rice was at the three-leaf stage of maturity. Two replicate plots of each check variety and of the resistant line were left unsprayed as controls. The Accent treatment used 0.67 ounce of product (0.50 ounce active ingredient) per acre, with 0.25% nonionic surfactant. The Pursuit treatment used four ounces of product (1.00 ounce active ingredient) per acre, with 0.25% nonionic surfactant. The Scepter treatment used one pint of product (3.00 ounces active ingredient) per acre, with 0.25% nonionic surfactant. The Beacon treatment used 0.76 ounce of product (0.57 ounce active ingredient) per acre, with 0.25% nonionic surfactant. […] A similar test with the same rice varieties and the ATCC 75295 line was conducted at the five-leaf stage of development (i.e., plants fifteen days older than in the test described above), using Accent and Pursuit at the rates given above. […] The ATCC 75295 line was resistant only when herbicide was applied post-emergence.

[2] = tested on: progeny of the mutant rice plant (ATCC 97523); test: Subsequent greenhouse and field testing of progeny of the surviving plant; conditions: herbicides applied either pre-emergence or post-emergence
Text: (Imazamox is sold by American Cyanamid under the trade name Raptor, and has as active ingredient (+)-5-methoxymethyl-2-(4-isopropyl-4-methyl-5-oxo-2-imidazolin-2-yl) nicotinic acid. Imazameth is sold by American Cyanamid under the trade name Cadre, and has as active ingredient (±)-2-[4,5-dihydro-4-methyl-4-(1-methyl-ethyl)-5-oxo-1H-imidazol-2-yl]- 5-methyl-3-pyridinecarboxylicacid;alternatechemicalname (±)-2-(4-isopropyl-4-methyl-5-oxo-2-imidazolin-2-yl)-5-methylnicotinic acid). Imazapyr is sold by American Cyanamid under the trade name Arsenal, and has active ingredient 2-[4,5-dihydro-4-methyl-4-(1-methylethyl)-5-oxo-1H-imidazol-2-yl]-3-pyridinecarboxylic acid) This line is resistant to herbicides applied either pre-emergence or post-emergence.

[3] = tested on: mutagenised rice seedlings of ten rice varieties; test: Field screen of mutagenised rice seedlings, all other plants; conditions: 2X treatment: nicosulfuron 0.063 lb a.i. per acre, imazethapyr 0.125 lb a.i. per acre; 0.25% non-ionic surfactant; 3-4 leaf stage; about four weeks later
Text: The second resistance mechanism resulted from inducing mutations in seeds of each of ten rice varieties. Mutations were induced by exposure either to gamma rays or to the chemical mutagen ethyl methanesulfonate (EMS). Ten-pound lots of seed of each variety were subjected to 25 k-rad of gamma irradiation from a Cobalt-60 source at the Nuclear Science Center, Louisiana State University, Baton Rouge, La. prior to planting. An additional ten pounds of seed of each variety was divided into three equal portions; and each portion was soaked for 16 hours in either 0.1%, 0.5%, or 1% EMS immediately prior to planting. Several hundred pounds of seed were harvested from plants grown from the seeds subjected to these mutagenic treatments.
The following spring the harvested seed was planted in strips in a field planting occupying a total of about three acres. At the 3-4 leaf stage of seedling development, herbicides were applied to screen for herbicide-resistant mutants. Half of the seedlings of each variety were sprayed with a 2X treatment of nicosulfuron, and half were sprayed with a 2X treatment of imazethapyr, in both cases by a tractor-mounted sprayer. Nicosulfuron was applied at the rate of 0.063 lb active ingredient (a.i.) per acre, and imazethapyr was applied at 0.125 lb a.i. per acre. Non-ionic surfactant (0.25%) was added to each spray solution. […]

[4] = five-leaf stage (plants fifteen days older), same rates as in the three-leaf test
[5] = three-leaf stage, per acre a.i.: Accent 0.50 ounce, Pursuit 1.00 ounce, Scepter 3.00 ounces, Beacon 0.57 ounce, 0.25% nonionic surfactant
[6] = subsequent tests (data not shown)

## CC(C)C1(C)N=C(c2nc3ccccc3cc2C(=O)O)NC1=O (stereo not shown) [imazaquin, 2-[4,5-dihydro-4-methyl-4-(1-methylethyl)-5-oxo-1H-imidazol-2-yl]-3-quinolinecarboxylic acid]
[1]; [4]
  Resistance of the rice line (in words): good resistance
[1]; [5]
  Resistance of the rice line (in words): good resistance
[2]
  Resistance of the rice line (in words): resistance

## COCc1cnc(C2=NC(C)(C(C)C)C(=O)N2)c(C(=O)O)c1 (single isomer, unassigned; (+)) [imazamox, (+)-5-methoxymethyl-2-(4-isopropyl-4-methyl-5-oxo-2-imidazolin-2-yl) nicotinic acid]
[2]
  Resistance of the rice line (in words): resistance

## COc1cc(OC)nc(NC(=O)NS(=O)(=O)c2ncccc2C(=O)N(C)C)n1 [nicosulfuron, 2-(((((4,6-dimethoxypyrimidin-2-yl)aminocarbonyl))aminosulfonyl))-N,N-dimethyl-3-pyridinecarboxamide]
[3]
  Symptoms of injury (in words): either severely injured or dead
[1]; [4]
  Resistance of the rice line (in words): excellent resistance
[1]; [5]
  Resistance of the rice line (in words): excellent resistance
[2]
  Resistance of the rice line (in words): resistance

## Cc1cnc(C2=NC(C)(C(C)C)C(=O)N2)c(C(=O)O)c1 (racemic) [imazameth, (±)-2-[4,5-dihydro-4-methyl-4-(1-methyl-ethyl)-5-oxo-1H-imidazol-2-yl]-5-methyl-3-pyridinecarboxylicacid]
[1]; [6]
  Resistance of the rice line (in words): exhibited resistance
[2]
  Resistance of the rice line (in words): resistance

## COC(=O)c1ccccc1S(=O)(=O)NC(=O)Nc1nc(OC(F)F)cc(OC(F)F)n1 [primisulfuron, 3-[4,6-bis(difluoromethoxy)-pyrimidin-2-yl]-1-(2-methoxycarbonylphenylsulfonyl)urea]
[1]; [5]
  Resistance of the rice line (in words): lower, but still significantly greater than that of the check rice varieties

## CC(C)C1(C)N=C(c2ncccc2C(=O)O)NC1=O (stereo not shown) [imazapyr, 2-[4,5-dihydro-4-methyl-4-(1-methylethyl)-5-oxo-1H-imidazol-2-yl]-3-pyridinecarboxylic acid]
[1]; [6]
  Resistance of the rice line (in words): exhibited resistance
[2]
  Resistance of the rice line (in words): resistance
